Test results published in PubChem BioAssay (NCI).
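Cultured in 96-well plates, cells were exposed to test compound for 48 hours across five concentrations. TGI marks complete inhibition of growth.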 Where a SMILES comes first, the peptide text is derived from it. The star is where a group is joined. Boc = CC(C)(C)OC(=O)*

Tests used:
Experiment in all cases: NCI-60 cell line screen, 48 h
NCI-H23 lung = test system: NCI-H23 lung
HOP-62 NSCLC = test system: HOP-62 NSCLC
ACHN renal = test system: ACHN renal
UO-31 renal = test system: UO-31 renal
SK-MEL-28 melanoma = test system: SK-MEL-28 melanoma
SN12C renal = test system: SN12C renal
OVCAR-5 ovarian = test system: OVCAR-5 ovarian
786-0 renal = test system: 786-0 renal
SR leukemia = test system: SR leukemia
OVCAR-3 ovarian = test system: OVCAR-3 ovarian
CAKI-1 renal = test system: CAKI-1 renal
OVCAR-4 ovarian = test system: OVCAR-4 ovarian
RPMI-8226 leukemia = test system: RPMI-8226 leukemia
HCC-2998 colon = test system: HCC-2998 colon
TK-10 renal = test system: TK-10 renal
SNB-75 CNS = test system: SNB-75 CNS
MALME-3M melanoma = test system: MALME-3M melanoma
PC-3 prostate = test system: PC-3 prostate
SW-620 colon = test system: SW-620 colon
MDA-N = test system: MDA-N
HT29 colon = test system: HT29 colon
T-47D breast = test system: T-47D breast
OVCAR-8 ovarian = test system: OVCAR-8 ovarian
MCF7 breast = test system: MCF7 breast
SK-MEL-2 melanoma = test system: SK-MEL-2 melanoma
NCI-H522 lung = test system: NCI-H522 lung
HCT-15 colon = test system: HCT-15 colon
SK-MEL-5 melanoma = test system: SK-MEL-5 melanoma
LOX IMVI melanoma = test system: LOX IMVI melanoma
IGROV1 ovarian = test system: IGROV1 ovarian
SF-268 CNS = test system: SF-268 CNS
DU-145 prostate = test system: DU-145 prostate
BT-549 breast = test system: BT-549 breast
HL-60(TB) leukemia = test system: HL-60(TB) leukemia
CCRF-CEM leukemia = test system: CCRF-CEM leukemia
HCT-116 colon = test system: HCT-116 colon
SNB-19 CNS = test system: SNB-19 CNS
A549 NSCLC = test system: A549 NSCLC
NCI-H460 lung = test system: NCI-H460 lung
M14 melanoma = test system: M14 melanoma
K-562 leukemia = test system: K-562 leukemia
NCI-H226 lung = test system: NCI-H226 lung
U251 CNS = test system: U251 CNS
MDA-MB-435 = test system: MDA-MB-435
UACC-257 melanoma = test system: UACC-257 melanoma
UACC-62 melanoma = test system: UACC-62 melanoma
MOLT-4 leukemia = test system: MOLT-4 leukemia
MDA-MB-231 breast = test system: MDA-MB-231 breast
KM12 colon = test system: KM12 colon
SF-539 CNS = test system: SF-539 CNS
EKVX NSCLC = test system: EKVX NSCLC
HOP-92 NSCLC = test system: HOP-92 NSCLC
NCI/ADR-RES ovarian = test system: NCI/ADR-RES ovarian
SK-OV-3 ovarian = test system: SK-OV-3 ovarian
A498 renal = test system: A498 renal
SF-295 CNS = test system: SF-295 CNS
COLO 205 colon = test system: COLO 205 colon

Measured: TGI

COC(=O)C(Cc1c[nH]c2ccccc12)NC(=O)C(Cc1c[nH]c2ccccc12)NC(=O)C(Cc1c[nH]c2ccccc12)NC(=O)C(Cc1c[nH]c2ccccc12)NC(=O)C(Cc1c[nH]c2ccccc12)NC(=O)C(Cc1c[nH]c2ccccc12)NC(=O)C(Cc1c[nH]c2ccccc12)NC(=O)OC(C)(C)C (stereo not given) (Boc-WWWWWWW-OMe; configuration not given here)
87.9 µM: SK-MEL-2 melanoma
58.9 µM: M14 melanoma
not listed: KM12 colon | SF-539 CNS | EKVX NSCLC | HOP-92 NSCLC | NCI/ADR-RES ovarian | SK-OV-3 ovarian | A498 renal | SF-295 CNS | COLO 205 colon
> 100 µM: all other assays above

CC(C)(C)OC(=O)C(C#N)C(=O)c1ccc(C(=O)O)[nH]1 (stereo not given)
41.5 µM: CAKI-1 renal
52.9 µM: OVCAR-4 ovarian
38.5 µM: NCI/ADR-RES ovarian
62.1 µM: HL-60(TB) leukemia
68.5 µM: SK-MEL-2 melanoma
45.7 µM: UACC-62 melanoma
73.6 µM: HOP-92 NSCLC
77.2 µM: A498 renal
not listed: HOP-62 NSCLC | SR leukemia | HCC-2998 colon | MCF7 breast | IGROV1 ovarian
> 100 µM: all other assays above
